# Assays:
# Type in all cases: physicochemical
# [1] = Competition batch titration with DTPA (pGd); conditions: pH 7.4, 24 h equilibration, three titrations
# Description: The affinity of these ligands for protons and metal ions in solution is described in terms of formation constants. The protonation of a metal complex can be subsequently calculated from the appropriate cumulative constants. The stability of metal complexes can be discussed in terms of the pM value (in this case pGd) which is expressed as
# Although a pM value can be calculated under various conditions (e.g. different pH's or relative concentrations), in the context of a biological scenario the following parameters are commonly used for comparison: [M]=1 μM, [L]=10 μM, and pH=7.4.
# The stability of the heteropodate ligands with Gd^3+, Ca^2+, and Zn^2+ can be measured by spectrophotometric titration. The strong UV absorptions (π→π*) of the pyrone rings of the ligands can be monitored in order to follow the complexation reaction (FIG. 2). The titration can be performed in a batch mode, collecting between 20-40 spectra, monitored between 200-500 nm for each titration of a ligand in the presence of an equal molar amount of Gd^3+, Ca^2+ or Zn^2+. […]
# Aqueous solubility = assay: Aqueous solubility
# [2] = Protonation constants of free ligands by potentiometric titration; conditions: 1.0 M aqueous NaCl, ligand ~0.5 mM
# Method: Thermodynamic evaluation of the new ligands can include potentiometric determination of the ligand protonation constants and spectrophotometric evaluation of the Gd^3+, Ca^2+, and Zn^2+ stability constants. In order to determine the stability of these ligands with Gd^3+, first the protonation constants for each ligand is determined. The protonation constants can be measured by potentiometric titration and the assignment of these protonations can be made using ^1H NMR titrations. ^1H NMR titration experiments use changes in the chemical shift of the non-exchangeable protons on the ligand to assign the sites of protonation; data is plotted as chemical shift vs. pD.
# The experimental protocols and equipment used have been previously described (Johnson, A. R., et al. Inorg. Chem. 2000, 39, 2652). To determine the protonation constants of the free ligands, approximately 15 mg of ligand was dissolved in 50 mL of a 1.0 M aqueous solution of NaCl in a titration vessel (ligand concentration ˜0.5 mM). Protonation constants of TRENMAM and TREN-Me-MAM were examined by potentiometric (pH vs total proton concentration) titrations by using Hyperquad (Gans, P. et al. Talanta 1996, 43, 1739) for data analysis. Each protonation constant determination is the result from at least three experiments (where each experiment consists of two titrations, the first one titrated with acid, followed by a reverse titration with base). The equilibration time between additions of titrant was 90 seconds.
Compound,pGd [1],water solubility compared to the TREN-Me-MAM ligand (Aqueous solubility),log K1 (protonation constant) [2],log K2 (protonation constant) [2],log K3 (protonation constant) [2],log K4 (protonation constant) [2]
O=C(NCCN(CCNC(=O)c1occc(=O)c1O)CCNC(=O)c1occc(=O)c1O)c1occc(=O)c1O [TRENMAM],19.27±0.08,improved water solubility,7.33(1),5.76(1),4.97(2),3.84(2)
tris(aminoethyl)amine)methylmaltolamide [TREN-Me-MAM],19.03±0.04,,7.91(1),6.30(2),5.48(2),4.46(2)
